Here are results for 1 compound from patent US11006630B2, “Stable suspension concentrate formulation for water-soluble compounds” (FMC Corporation, priority 2006, dated 2021).

The structures appear in SMILES notation.

The series in a line: Solubility of N-cyanomethyl-4-(trifluoromethyl)nicotinamide in salt solutions (HPLC of filtrate). The class given is physicochemical. Particulars: for Amount of N-cyanomethyl-4-(trifluoromethyl)nicotinamide in Salt Solutions After Filtration: about 18 hours at ambient temperature. How it is done:
In order to determine the effectiveness of a salt to decrease the solubility of N-cyanomethyl-4-(trifluoromethyl)nicotinamide in aqueous solutions, the following tests were conducted:
A salt solution consisting of two grams of a salt dissolved in ten grams of water was prepared. Fifty milligrams of N-cyanomethyl-4-(trifluoromethyl)nicotinamide was added and the resulting mixture was subjected to sonication until all the N-cyanomethyl-4-(trifluoromethyl)nicotinamide had dissolved. The solutions were allowed to stand at ambient temperature for about 18 hours. Each solution was filtered and the filtrate was analyzed by HPLC to determine the amount of N-cyanomethyl-4-(trifluoromethyl)nicotinamide which remained dissolved in the water. An experiment in which no salt was added was included as a control.

Take `N#CCNC(=O)c1cnccc1C(F)(F)F` [N-cyanomethyl-4-(trifluoromethyl)nicotinamide]: the “Amount of N-cyanomethyl-4-(trifluoromethyl)nicotinamide in Salt Solutions After Filtration” value reads like this: (Control, no salt, 50 mg added to 10 g water) 50.0 mg; (Magnesium Sulfate (Anhydrous), 2 g in 10 g water, 50 mg added) 7.0 mg; (Sodium Sulfate, 2 g in 10 g water, 50 mg added) 10.0 mg. The “Reduction of solubility in an aqueous solution” value is given as “over 90%” (concentration of 20% magnesium sulfate) and 80% (sodium sulfate).
